Test results published in PubChem BioAssay (NCI).
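Step 1: Grow cells in 96-well plates. Step 2: Expose to compound for 48 hours at 5 concentrations. Step 3: Interpolate endpoints linearly; if unreached, use highest concentration. GI50 = concentration required for 50% inhibition of growth. Definition used: TGI = concentration required for complete inhibition of growth.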

How the values were obtained:
Assay in all cases: NCI-60 cell line screen, 48 h
[1] = test system: LOX IMVI melanoma
[2] = test system: A549 NSCLC
[3] = test system: MCF7 breast
[4] = test system: NCI-H460 lung
[5] = test system: SF-295 CNS
[6] = test system: NCI-H522 lung
[7] = test system: TK-10 renal
[8] = test system: BT-549 breast

SMILES | GI50 [1] [µM] | TGI [1] [µM] | GI50 [2] [µM] | TGI [2] [µM] | GI50 [3] [µM] | TGI [3] [µM] | GI50 [4] [µM] | TGI [4] [µM] | GI50 [5] [µM] | TGI [5] [µM] | GI50 [6] [µM] | TGI [6] [µM] | GI50 [7] [µM] | TGI [7] [µM] | GI50 [8] [µM] | TGI [8] [µM]
CCSc1ccc([C@@H]2[C@@H](N)C(=O)N2c2cc(OC)c(OC)c(OC)c2)cc1 | 0.0754 | > 100 | 0.108 | > 100 | 0.0392 | > 100 | 0.0488 | > 100 | 0.0515 | > 100 | 0.0238 | 0.0966 | 30.6 | > 100 | 0.0592 | > 100
COc1ccc(/C=C\c2cc(OC)c(OC)c(OC)c2)cc1OCC(=O)Nc1nc2ccccc2s1 | 0.0808 | > 100 | 0.31 | > 100 | 0.113 | > 100 | 0.0476 | > 100 | 0.22 | 0.646 | 0.049 | 0.338 | – | – | 0.303 | > 100
Cc1ccc(-c2cc(-c3ccc(C)cc3)nc(N3CCN(CCNc4ccnc5cc(Cl)ccc45)CC3)n2)cc1 | 1.82 | 6.07 | 3.62 | 13.3 | 2.11 | 13.4 | 2.21 | 9.2 | 5.27 | 15.4 | 5.65 | 22 | 2.29 | 8.12 | 6.06 | 17
Clc1ccc2nc(Cl)c3ccccc3c2c1 | 20.9 | > 100 | 5.92 | > 100 | 96 | > 100 | 3.29 | 11.8 | 10.5 | 35.7 | 63.4 | > 100 | 4.96 | 31.8 | 36.1 | > 100
CCOC(=O)c1ccccc1SC(C[N+](=O)[O-])c1ccccc1 (configuration not stated) | 1.81 | 3.51 | 5.18 | 21.6 | 1.07 | 4.12 | 18.6 | 39.5 | 18.3 | 34.6 | 11 | 23.3 | 5.91 | 18.8 | 2.31 | 5.53
CCOc1cc2c(=O)oc3c(OC)ccc4ccc(c1OC)c2c43 | – | > 100 | – | > 100 | – | > 100 | – | > 100 | – | > 100 | – | 90.7 | – | > 100 | – | –
O=C(Cn1c(C(=O)c2ccc(Cl)cc2)nc(-c2ccccc2)c1-c1ccccc1)c1ccc(Cl)cc1 | > 100 | > 100 | > 100 | > 100 | > 100 | > 100 | > 100 | > 100 | > 100 | > 100 | > 100 | > 100 | > 100 | > 100 | > 100 | > 100
Nc1nc(-c2ccc(Cl)cc2)cc(-c2ccc(Cl)cc2)c1-c1nc2ccccc2o1 | 18.7 | 36.5 | 15.5 | 40.7 | 10.6 | 35.7 | 16.8 | 39.6 | 21.7 | 40.3 | 15 | 30.5 | 20 | 41.9 | 18.1 | 33.4
